Data reported in US20240335442A1 (Eurofarma Laboratórios S.A., priority 2021, published 2024).
One block for each molecule: values may come before it.

Assays:
[1] = molecular target: human sodium channel Nav 1.7 (Homo sapiens (Human), UniProt Q15858); assay: Automated whole-cell voltage-clamp (ScreenPatch 384P), Nav 1.7 sodium current, Protocol 2; type: cell-based; conditions: read-out: Nav1.7 IC50
Description: (§1) Biological assays were performed on Chinese hamster ovary (CHO) cells expressing the human sodium channels Nav 1.8 and Nav 1.7 stably.
(§2) The experimental voltage-clamp protocol using the whole cell configuration was established on the automated ScreenPatch® 384P platform (SP384PE, Nanion Technologies, Livingston, NJ) and recording of the results was performed with a Nanion 384-well Patch Clamp chip (NPC) (Nanion Technologies, Livingston, NJ).
(§3) Compounds of Formula (I), were diluted in eight concentrations in the extracellular solution composed of physiological saline, buffered with HEPES (mM): NaCl, 137; KCl, 4; CaCl2, 3.8; MgCl2, 1; HEPES, 10; Glucose, 10; pH 7.4. The […], 50; CsF, 90; MgCl2, 5; EGTA, 5; HEPES, 10; pH 7.2. The duration of exposure of each compound with the cells expressing Nav 1.7 or Nav 1.8 was at least five minutes and the assays were performed at room temperature.
(§4) The measurements of the sodium currents of Nav 1.8 and Nav 1.7 were obtained using the voltage protocols described below: • Protocol 1: A holding voltage of-90 mV was established followed by a voltage phase of 200 ms to-120 mV, followed by a voltage step of 10 mV for 1 second for Nav 1.8 or 0 mV for Nav 1.7, followed by a step of-100 mV for 20 ms, followed by a step of 20 ms for 10 mV for Nav 1.8 or 0 mV for Nav 1.7 (TP1A) before returning to the holding voltage of-90 mV. • Protocol 2: A holding voltage of-100 mV was established followed by an inactivation voltage step at −40 mV for 8 seconds, followed by a −100 mV step for 20 ms, followed by a 20 ms step for 10 mV for Nav 1.8 or 0 mV for Nav 1.7 (TP1A) before returning to the holding voltage of-100 mV.
(§5) Protocols were repeated at a frequency of 0.1 Hz (Protocol 1) or 0.05 Hz (Protocol 2) and current amplitude was quantified over the TP1A phase log. The variation in the peak amplitude of the current was evaluated according to the Formula described below, after exposure of the cells expressing the channels, at each concentration of the different compounds:
(§6) where ITP1A,basal, and ITP1A,molecule represent the entry peaks of sodium currents into TP1A prior to exposure to the compound and in the presence of the compound, respectively.
(§7) The decrease in peak current amplitude, after exposure of the cells to the compounds, was used to calculate the percent relative blocking of the channels relative to the positive control according to the Formula below: […]
(§8) where % V and % CP represent the averages of the values of current inhibition with a vehicle (DMSO) and positive controls, respectively. The sodium currents of the positive control were considered as 100%.
(§9) where [Test] represents the concentration of the evaluated molecule, IC50 is the concentration of the compound that generates half of the maximum inhibition, N is the Hill's coefficient and % Block′ is the percentage of the sodium channel current (Nav 1.8 and Nav 1.7) inhibited at each concentration of the evaluated molecule. Data were obtained by non linear least squares regression with XL fit for Excel (Microsoft, Redmond, WA).
(§10) Compounds were tested in at least one assay to obtain the IC50 value.

[2] = molecular target: human sodium channel Nav 1.8 (Homo sapiens (Human), UniProt Q9Y5Y9); assay: Automated whole-cell voltage-clamp (ScreenPatch 384P), Nav 1.8 sodium current, Protocol 2; type: cell-based; conditions: read-out: Nav1.8 IC50
Description: as §1, §2, §3, §4, §5, §6, §7, §8, §9, §10

human sodium channel Nav 1.8, sequence (Q9Y5Y9 whole entry): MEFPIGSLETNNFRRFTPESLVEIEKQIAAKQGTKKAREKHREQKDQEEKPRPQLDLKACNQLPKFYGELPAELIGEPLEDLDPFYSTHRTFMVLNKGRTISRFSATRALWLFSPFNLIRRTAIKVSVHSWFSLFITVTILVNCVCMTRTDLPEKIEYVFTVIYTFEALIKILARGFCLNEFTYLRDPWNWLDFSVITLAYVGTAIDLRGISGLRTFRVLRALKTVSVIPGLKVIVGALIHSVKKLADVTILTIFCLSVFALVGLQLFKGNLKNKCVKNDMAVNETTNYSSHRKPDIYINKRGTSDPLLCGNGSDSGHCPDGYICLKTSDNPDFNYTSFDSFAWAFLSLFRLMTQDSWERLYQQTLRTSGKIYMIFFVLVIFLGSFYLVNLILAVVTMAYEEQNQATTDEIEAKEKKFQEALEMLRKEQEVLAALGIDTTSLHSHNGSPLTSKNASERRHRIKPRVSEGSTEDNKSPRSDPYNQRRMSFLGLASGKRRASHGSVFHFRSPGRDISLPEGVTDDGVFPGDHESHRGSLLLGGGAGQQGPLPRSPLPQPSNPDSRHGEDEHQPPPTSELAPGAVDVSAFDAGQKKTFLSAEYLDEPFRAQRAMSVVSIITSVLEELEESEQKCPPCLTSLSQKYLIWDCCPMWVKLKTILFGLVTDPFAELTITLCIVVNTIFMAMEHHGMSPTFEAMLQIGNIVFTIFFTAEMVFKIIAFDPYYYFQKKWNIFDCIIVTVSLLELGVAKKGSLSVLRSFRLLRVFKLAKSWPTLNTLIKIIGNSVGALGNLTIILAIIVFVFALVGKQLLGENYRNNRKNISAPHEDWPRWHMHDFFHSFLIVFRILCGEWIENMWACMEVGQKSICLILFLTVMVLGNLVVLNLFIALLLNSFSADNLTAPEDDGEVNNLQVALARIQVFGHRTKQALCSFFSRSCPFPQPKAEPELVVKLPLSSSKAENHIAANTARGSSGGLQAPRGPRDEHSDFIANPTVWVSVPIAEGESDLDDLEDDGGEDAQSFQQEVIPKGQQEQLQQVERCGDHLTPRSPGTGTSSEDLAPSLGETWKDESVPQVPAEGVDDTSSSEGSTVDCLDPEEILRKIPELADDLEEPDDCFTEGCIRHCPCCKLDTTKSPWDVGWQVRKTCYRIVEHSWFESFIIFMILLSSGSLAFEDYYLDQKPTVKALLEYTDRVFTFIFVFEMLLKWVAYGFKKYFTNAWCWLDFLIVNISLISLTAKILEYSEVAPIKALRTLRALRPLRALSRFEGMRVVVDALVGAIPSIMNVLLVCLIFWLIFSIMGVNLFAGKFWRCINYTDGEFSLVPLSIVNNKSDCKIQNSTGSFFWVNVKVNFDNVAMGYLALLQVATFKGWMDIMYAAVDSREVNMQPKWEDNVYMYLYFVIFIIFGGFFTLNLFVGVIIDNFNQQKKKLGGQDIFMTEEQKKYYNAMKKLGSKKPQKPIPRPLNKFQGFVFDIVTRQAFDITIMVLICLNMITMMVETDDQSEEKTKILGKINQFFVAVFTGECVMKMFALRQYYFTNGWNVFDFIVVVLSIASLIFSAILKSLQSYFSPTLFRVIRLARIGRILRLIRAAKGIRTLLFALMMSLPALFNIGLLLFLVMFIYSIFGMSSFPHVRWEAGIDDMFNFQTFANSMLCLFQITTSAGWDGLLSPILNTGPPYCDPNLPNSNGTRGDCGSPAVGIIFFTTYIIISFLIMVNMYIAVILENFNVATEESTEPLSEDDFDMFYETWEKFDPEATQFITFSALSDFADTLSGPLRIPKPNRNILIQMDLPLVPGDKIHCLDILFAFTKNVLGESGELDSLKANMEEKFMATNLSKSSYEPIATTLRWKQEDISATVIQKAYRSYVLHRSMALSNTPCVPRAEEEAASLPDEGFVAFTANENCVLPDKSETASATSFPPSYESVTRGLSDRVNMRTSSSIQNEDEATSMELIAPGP
human sodium channel Nav 1.7, sequence (Q15858 whole entry): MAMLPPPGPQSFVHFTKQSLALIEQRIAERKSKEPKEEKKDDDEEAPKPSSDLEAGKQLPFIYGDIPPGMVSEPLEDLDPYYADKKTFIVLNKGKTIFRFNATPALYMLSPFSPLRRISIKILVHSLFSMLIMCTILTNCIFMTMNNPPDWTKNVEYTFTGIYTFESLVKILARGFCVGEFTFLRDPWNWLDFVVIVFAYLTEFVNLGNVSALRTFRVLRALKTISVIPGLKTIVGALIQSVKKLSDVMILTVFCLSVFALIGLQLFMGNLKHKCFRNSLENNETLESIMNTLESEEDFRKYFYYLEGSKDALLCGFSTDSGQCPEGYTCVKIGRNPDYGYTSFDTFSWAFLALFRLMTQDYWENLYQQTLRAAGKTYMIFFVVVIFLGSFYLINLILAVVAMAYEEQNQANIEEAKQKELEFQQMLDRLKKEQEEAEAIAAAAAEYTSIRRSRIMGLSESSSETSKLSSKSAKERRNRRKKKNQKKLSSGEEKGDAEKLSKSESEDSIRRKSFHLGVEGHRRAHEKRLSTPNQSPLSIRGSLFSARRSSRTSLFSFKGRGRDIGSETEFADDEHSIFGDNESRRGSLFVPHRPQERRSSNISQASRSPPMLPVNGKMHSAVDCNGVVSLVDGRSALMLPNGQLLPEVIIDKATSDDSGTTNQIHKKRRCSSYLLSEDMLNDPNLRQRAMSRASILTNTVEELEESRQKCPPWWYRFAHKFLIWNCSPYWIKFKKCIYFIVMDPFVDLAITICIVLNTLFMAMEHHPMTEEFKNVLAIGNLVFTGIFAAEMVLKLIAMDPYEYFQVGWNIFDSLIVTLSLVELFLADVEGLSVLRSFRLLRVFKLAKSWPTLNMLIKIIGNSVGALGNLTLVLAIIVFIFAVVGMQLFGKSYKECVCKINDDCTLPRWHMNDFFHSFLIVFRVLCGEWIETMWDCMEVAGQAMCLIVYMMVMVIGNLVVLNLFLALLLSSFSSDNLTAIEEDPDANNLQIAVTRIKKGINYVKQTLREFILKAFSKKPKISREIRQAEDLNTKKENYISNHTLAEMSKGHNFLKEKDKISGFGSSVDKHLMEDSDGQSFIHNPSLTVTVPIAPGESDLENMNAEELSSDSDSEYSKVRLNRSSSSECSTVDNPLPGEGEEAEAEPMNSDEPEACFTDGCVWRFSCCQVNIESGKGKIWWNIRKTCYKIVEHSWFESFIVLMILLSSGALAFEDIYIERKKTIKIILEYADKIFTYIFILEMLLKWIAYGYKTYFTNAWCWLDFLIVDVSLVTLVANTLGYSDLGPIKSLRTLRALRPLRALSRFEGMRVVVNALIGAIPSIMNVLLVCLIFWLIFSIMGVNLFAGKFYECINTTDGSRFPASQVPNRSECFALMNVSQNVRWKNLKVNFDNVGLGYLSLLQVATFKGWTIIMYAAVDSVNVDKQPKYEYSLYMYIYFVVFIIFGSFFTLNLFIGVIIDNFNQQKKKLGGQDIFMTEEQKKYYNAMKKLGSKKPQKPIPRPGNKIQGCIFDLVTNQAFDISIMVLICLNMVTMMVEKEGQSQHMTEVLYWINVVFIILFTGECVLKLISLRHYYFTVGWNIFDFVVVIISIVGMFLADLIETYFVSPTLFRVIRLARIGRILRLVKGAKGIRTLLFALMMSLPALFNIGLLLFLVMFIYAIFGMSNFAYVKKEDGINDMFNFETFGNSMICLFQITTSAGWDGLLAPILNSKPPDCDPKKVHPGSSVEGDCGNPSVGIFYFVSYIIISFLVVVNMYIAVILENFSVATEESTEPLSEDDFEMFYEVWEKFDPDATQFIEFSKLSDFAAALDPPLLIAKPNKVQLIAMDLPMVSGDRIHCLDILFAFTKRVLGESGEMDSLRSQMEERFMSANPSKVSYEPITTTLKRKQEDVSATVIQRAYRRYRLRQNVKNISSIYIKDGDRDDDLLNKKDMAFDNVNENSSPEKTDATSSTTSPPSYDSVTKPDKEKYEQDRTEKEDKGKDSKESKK

- IC50 [1]: 1.31 µM
- IC50 [2]: 0.158 µM
Structure (SMILES): COc1ccc(-c2cncc(C(=O)N/N=C/c3ccccc3C(F)(F)F)n2)cc1 [Compound 49, (E)-6-(4-methoxyphenyl)-N′-(2-(trifluoromethyl)benzylidene)pyrazine-2-carbohydrazide]

- IC50 [1]: > 10 µM
- IC50 [2]: 0.441 µM
Structure (SMILES): COc1ccc(-c2cncc(C(=O)N/N=C/c3cccc(F)c3)n2)cc1 [Compound 53, (E)-N′-(3-fluorobnezylidene)-6-(4-methoxyphenyl)pyrazine-2-carbohydrazide]

- IC50 [1]: 2.19 µM
- IC50 [2]: 0.476 µM
Structure (SMILES): COc1ccc(-c2cncc(C(=O)N/N=C/c3cccc(Br)c3)n2)cc1 [Compound 55, (E)-N′-(3-bromobenzylidene)-6-(4-methoxyphenyl)pyrazine-2-carbohydraizde]

- IC50 [1]: 5.48 µM
- IC50 [2]: 0.462 µM
Structure (SMILES): COc1ccc(-c2cncc(C(=O)N/N=C/c3cccc(C(F)(F)F)c3)n2)cc1 [Compound 56, (E)-6-(4-methoxyphenyl)-N′-(3-(trifluoromethyl)benzylidene)pyrazine-2-carbohydrazide]

- IC50 [1]: 1.05 µM
- IC50 [2]: 0.097 µM
Structure (SMILES): COc1ccc(-c2cncc(C(=O)N/N=C/c3cccc(C)c3)n2)cc1 [Compound 58, (E)-6-(4-methoxyphenyl)-N′-(3-methylbenzylidene)pyrazine-2-carbohydrazide]

- IC50 [1]: 5.19 µM
- IC50 [2]: 0.34 µM
Structure (SMILES): COc1ccc(-c2cncc(C(=O)N/N=C/c3ccc(F)cc3)n2)cc1 [Compound 60, (E)-N′-(4-fluorobenzylidene)-6-(4-methoxyphenyl)pyrazine-2-carbohydrazide]

- IC50 [1]: 7.02 µM
- IC50 [2]: 0.614 µM
Structure (SMILES): COc1ccc(-c2cncc(C(=O)N/N=C/c3ccc(Cl)cc3)n2)cc1 [Compound 61, (E)-N′-(4-chlorobenzylidene)-6-(4-methoxyphenyl)pyrazine-2-carbohydrazide]

- IC50 [1]: > 10 µM
- IC50 [2]: 0.761 µM
Structure (SMILES): COc1ccc(-c2cncc(C(=O)N/N=C/c3ccc(Br)cc3)n2)cc1 [Compound 62, (E)-N′-(4-bromobenzylidene)-6-(4-methoxyphenyl)pyrazine-2-carbohydrazide]

- IC50 [1]: > 10 µM
- IC50 [2]: > 1 µM
Structure (SMILES): COc1ccc(-c2cncc(C(=O)N/N=C/c3ccc(C(F)(F)F)cc3)n2)cc1 [Compound 63, (E)-6-(4-methoxyphenyl)-N′-(4-(trifluoromethyl)benzylidene)pyrazine-2-carbohydrazide]

- IC50 [1]: 8.16 µM
- IC50 [2]: 1 µM
Structure (SMILES): COc1ccc(-c2cncc(C(=O)N/N=C/c3ccc(N(C)C)cc3)n2)cc1 [Compound 64]

- IC50 [1]: 6.6 µM
- IC50 [2]: 0.8 µM
Structure (SMILES): COc1ccc(-c2cncc(C(=O)N/N=C/c3ccc(C)cc3)n2)cc1 [Compound 65, (E)-6-(4-methoxyphenyl)-N′-(4-methylbenzylidene)pyrazine-2-carbohydrazide]

- IC50 [1]: > 10 µM
- IC50 [2]: > 1 µM
Structure (SMILES): COc1ccc(-c2cncc(C(=O)N/N=C/c3ccc(C(C)(C)C)cc3)n2)cc1 [Compound 66, (E)-N′-(4-(tert-butyl)benzylidene)-6-(4-methoxyphenyl)pyrazine-2-carbohydrazide]

- IC50 [1]: > 10 µM
- IC50 [2]: 0.777 µM
Structure (SMILES): COc1ccc(-c2cncc(C(=O)N/N=C/c3cc(C(F)(F)F)cc(C(F)(F)F)c3)n2)cc1 [Compound 73, (E)-N′-(3,5-bis(trifluoromethyl)benzylidene)-6-(4-methoxyphenyl)pyrazine-2-carbohydrazide]

Further lines, the molecule ahead of its results:

Structure (SMILES): COc1ccc(-c2cncc(C(=O)N/N=C/c3ccccc3F)n2)cc1 [Compound 46, (E)-N′-(2-fluorobenzylidene)-6-(4-methoxyphenyl)pyrazine-2-carbohydrazide]
- IC50 [1]: 1.99 µM
- IC50 [2]: 0.178 µM

Structure (SMILES): COc1ccc(-c2cncc(C(=O)N/N=C/c3ccccc3Cl)n2)cc1 [Compound 47, (E)-N′-(2-chlorobenzylidene)-6-(4-methoxyphenyl)pyrazine-2-carbohydrazide]
- IC50 [1]: 1.42 µM
- IC50 [2]: 0.082 µM

Structure (SMILES): COc1ccc(-c2cncc(C(=O)N/N=C/c3ccccc3Br)n2)cc1 [Compound 48, (E)-N′-(2-bromobenzylidene)-6-(4-methoxyphenyl)pyrazine-2-carbohydrazide]
- IC50 [1]: 0.798 µM
- IC50 [2]: 0.233 µM

Structure (SMILES): COc1ccc(-c2cncc(C(=O)N/N=C/c3ccccc3C)n2)cc1 [Compound 51, (E)-6-(4-methoxyphenyl)-N′-(2-methylbenzylidene)pyrazine-2-carbohydrazide]
- IC50 [1]: 1.38 µM
- IC50 [2]: 0.131 µM

Structure (SMILES): COc1ccc(-c2cncc(C(=O)N/N=C/c3ccccc3C(C)(C)C)n2)cc1 [Compound 52, (E)-N′-(2-(tert-butyl)benzylidene)-6-(4-methoxyphenyl)pyrazine-2-carbohydrazide]
- IC50 [1]: 3.59 µM
- IC50 [2]: > 1 µM

Structure (SMILES): COc1ccc(-c2cncc(C(=O)N/N=C/c3cccc(Cl)c3)n2)cc1 [Compound 54, (E)-N′-(3-chlorobenzylidene)-6-(4-methoxyphenyl)pyrazine-2-carbohydrazide]
- IC50 [1]: 2.91 µM
- IC50 [2]: 0.311 µM

Structure (SMILES): COc1ccc(-c2cncc(C(=O)N/N=C/c3cccc(C(C)(C)C)c3)n2)cc1 [Compound 59, (E)-N′-(3-(tert-butyl)benzylidene)-6-(4-methoxyphenyl)pyrazine-2-carbohydrazide]
- IC50 [1]: 1.85 µM
- IC50 [2]: 0.492 µM

Structure (SMILES): CCOc1cc(/C=N/NC(=O)c2cncc(-c3ccc(OC)cc3)n2)cc(OCC)c1 [Compound 67, (E)-N′-(3,5-diethoxybenzylidene)-6-(4-methoxyphenyl)pyrazine-2-carbohydrazide]
- IC50 [1]: 1.93 µM
- IC50 [2]: 0.747 µM

Structure (SMILES): COc1ccc(-c2cncc(C(=O)N/N=C/c3cc(C(C)(C)C)cc(C(C)(C)C)c3)n2)cc1 [Compound 76, (E)-N′-(3,5-di-tert-butylbenzylidene)-6-(4-methoxyphenyl)pyrazine-2-carbohydrazide]
- IC50 [1]: > 10 µM
- IC50 [2]: > 1 µM

Structure (SMILES): COc1ccc(-c2cncc(C(=O)N/N=C/c3cccnc3)n2)cc1 [Compound 77, (E)-6-(4-methoxyphenyl)-N′-(pyridin-3-ylmethylene)pyrazine-2-carbohydrazide]
- IC50 [1]: > 10 µM
- IC50 [2]: > 1 µM

Structure (SMILES): COc1ccc(-c2cncc(C(=O)N/N=C/c3ccc(OC)cc3OC)n2)cc1 [Compound 78, (E)-N′-(2,4-dimethoxybenzylidene)-6-(4-methoxyphenyl)pyrazine-2-carbohyrazide]
- IC50 [1]: 7.15 µM
- IC50 [2]: 0.841 µM

Structure (SMILES): COc1ccc(-c2cncc(C(=O)N/N=C/c3c(OC)cccc3OC)n2)cc1 [Compound 79, (E)-N′-(2,6-dimethoxybenzylidene)-6-(4-methoxyphenyl)pyrazine-2-carbohydrazide]
- IC50 [1]: > 10 µM
- IC50 [2]: > 1 µM

Structure (SMILES): COc1ccc(-c2cncc(C(=O)N/N=C/c3ccc(OC)c(OC)c3OC)n2)cc1 [Compound 82, (E)-6-(4-methoxyphenyl)-N′-(2,3,4-trimethoxybenzylidene)pyrazine-2-carbohydrazide]
- IC50 [1]: 2.77 µM
- IC50 [2]: > 1 µM

Structure (SMILES): CCCCOc1ccc(-c2cncc(C(=O)N/N=C/c3cc(OC)cc(OC)c3)n2)cc1 [Compound 83]
- IC50 [1]: 0.135 µM
- IC50 [2]: 0.103 µM

Structure (SMILES): CCCCOc1ccc(-c2cncc(C(=O)N/N=C/c3cc(C)cc(C)c3)n2)cc1 [Compound 84, (E)-6-(4-butoxyphenyl)-N′-(3,5-dimethylbenzylidene)pyrazine-2-carbohydrazide]
- IC50 [1]: 0.179 µM
- IC50 [2]: 0.152 µM

Structure (SMILES): COc1cc(/C=N/NC(=O)c2cncc(-c3ccc(OCC(C)C)cc3)n2)cc(OC)c1 [Compound 85, (E)-N′-(3,5-dimethoxybenzylidene)-6-(4-isobutoxyphenyl)pyrazine-2-carbohydrazide]
- IC50 [1]: 0.159 µM
- IC50 [2]: 0.0318 µM

Structure (SMILES): Cc1cc(C)cc(/C=N/NC(=O)c2cncc(-c3ccc(OCC(C)C)cc3)n2)c1 [Compound 86, (E)-N′-(3,5-dimethylbenzylidene)-6-(4-isobutoxyphenyl)pyrazine-2-carbohydrazide]
- IC50 [1]: 0.141 µM
- IC50 [2]: 0.209 µM

Structure (SMILES): COc1cc(/C=N/NC(=O)c2cncc(-c3ccc(OC(C)(C)C)cc3)n2)cc(OC)c1 [Compound 87, (E)-6-(4-(tert-butoxy)phenyl)-N′-(3,5-dimethoxybenzylidene)pyrazine-2-carbohydrazide]
- IC50 [1]: 0.264 µM
- IC50 [2]: 0.447 µM
